Literature values, collected in patent US20110244057A1, “COMBINATION THERAPIES WITH TOPIRAMATE FOR SEIZURES, RESTLESS LEGS SYNDROME, AND OTHER NEUROLOGICAL CONDITIONS” (priority 2008, published 2011).

Experiments:
[1] = doses of 100 mg/day and 200 mg/day; Romigi et al., J. Neurology, 2007
[2] = system: kindled seizures; details: rats; Wauquier and Zhou, Epilepsy Res. 24:73-77, 1996

induction of Restless Leg Syndrome (RLS) [1]: cause RLS
Compound: CC1(C)O[C@@H]2[C@@H](CO[C@@]3(COS(N)(=O)=O)OC(C)(C)O[C@@H]23)O1 [topiramate, 2,3:4,5-bis-O-(1-methylethyldiene)-β-D-fructopyranose sulfamate]
effect on kindled seizures [2]: blocks kindled seizures
